Values quoted from earlier work as cited in PMC8878452, “A Tale of Toxin Promiscuity: The Versatile Pharmacological Effects of Hcr 1b-2 Sea Anemone Peptide on Voltage-Gated Ion Channels” (Marine Drugs, 2022).
Entries after “also recorded” stand apart in the source; their conditions may differ. Like-named read-outs stand apart in the source and are kept apart here. Where no end group is shown, it is not given here.

Columns and labels:
[1] = system: Kv3.1; conditions: cited from earlier work
From the text: (§1) The only targets in which Hcr 1b-2 was not active were Kv3.1 and Kv10.1 (Figure 2 and Figure 3). Among sea anemone toxins, BDS-I, from Anemonia sulcata, is a well-characterized toxin capable of inhibiting isoforms from the Kv3 family, being active on Kv3.1, Kv3.2, and Kv3.4 [33].

[2] = system: TTX-sensitive channels; conditions: cited from earlier work
From the text: as §1

[3] = system: TTX-resistant isoforms; conditions: cited from earlier work
From the text: as §1

[4] = system: Kv3.2; conditions: cited from earlier work
From the text: as §1

[5] = system: Kv3.4; design: method as in 2 sources, ref 22 = [22]; PMID 15044953; doi:10.1038/sj.emboj.7600177; 22. Diochot S. Baron A. Rash L.D. Deval E. Escoubas P. Scarzello S. Salinas M. Lazdunski M. A new sea anemone peptide, APETx2, inhibits ASIC3, a major acid-sensitive channel in sensory neurons EMBO J. ||| ref 33 = [33]; PMID 16177043; doi:10.1523/JNEUROSCI.2119-05.2005; 33. Yeung S.Y. Thompson D. Wang Z. Fedida D. Robertson B. Modulation of Kv3 subfamily potassium currents by the sea anemone toxin BDS: Significance for CNS and biophysical studies J. Neurosci. 2005 25; conditions: cited from earlier work
[6] = system: BgNav1; conditions: cited from earlier work; for effect on insect channel BgNav: printed BgNav
From the text: (§2) APETx1 are known to modulate hERG [21], Nav1.2–1.6, and Nav1.8 [20], while APETx2 modulates ASICs, Kv3.4, [22], and hERG [23], as well as Nav1.2, Nav1.6, and Nav1.8 [20]. APETx3 is known for interacting with Nav1.2–1.4, Nav1.6, DmNav1, BgNav1, and VdNav1 [20]. […] Like Hcr 1b-2, APETx1 inhibits the mammalian Nav1.2–1.6 and Nav1.8 isoforms, while APETx2 acts on Nav1.2, Nav1.6, and Nav1.8.

[7] = system: Nav1.8; conditions: cited from earlier work
From the text: as §2

[8] = system: Nav1.5; conditions: cited from earlier work
From the text: as §2

[9] = system: Nav1.4; conditions: cited from earlier work
From the text: as §2

[10] = system: Nav1.2; conditions: cited from earlier work
From the text: as §2

[11] = system: Nav1.6; conditions: cited from earlier work
From the text: as §2

[12] = system: Nav1.3; conditions: cited from earlier work
From the text: as §2

[13] = system: Nav1.7; conditions: cited from earlier work
From the text: (§3) APETx1 and APETx2 are well-known sea anemone peptides that are characterized as sodium channel modulators. Like Hcr 1b-2, APETx1 inhibits the mammalian Nav1.2–1.6 and Nav1.8 isoforms, while APETx2 acts on Nav1.2, Nav1.6, and Nav1.8.

[14] = system: Nav1.1; conditions: cited from earlier work
From the text: as §3

[15] = system: hERG; conditions: cited from earlier work
From the text: APETx1 are known to modulate hERG [21], Nav1.2–1.6, and Nav1.8 [20], while APETx2 modulates ASICs, Kv3.4, [22], and hERG [23], as well as Nav1.2, Nav1.6, and Nav1.8 [20]. APETx3 is known for interacting with Nav1.2–1.4, Nav1.6, DmNav1, BgNav1, and VdNav1 [20]. […] Previous studies have shown that F15, Y32, F33, and L34 seem to be key residues for the interaction between APETx1 and hERG, as they are located on the molecular surface of this peptide. Hcr 1b-2 shares the same residues in its sequence (Figure 1), which can explain the similar effect observed.

[16] = system: ASIC; design: method as in 2 sources, one per row (each row's own in cited_ref): ref 17 = [17]; PMID 29684594; doi:10.1016/j.peptides.2018.04.013; 17. Kalina R. Gladkikh I. Dmitrenok P. Chernikov O. Koshelev S. Kvetkina A. Kozlov S. Kozlovskaya E. Monastyrnaya M. New APETx-like peptides from sea anemone Heteractis crispa modulate ASIC1a channels ||| ref 22 = [22]; PMID 15044953; doi:10.1038/sj.emboj.7600177; 22. Diochot S. Baron A. Rash L.D. Deval E. Escoubas P. Scarzello S. Salinas M. Lazdunski M. A new sea anemone peptide, APETx2, inhibits ASIC3, a major acid-sensitive channel in sensory neurons EMBO J.; conditions: cited from earlier work
[17] = system: Nav channels; conditions: cited from earlier work
From the text: as §3

[18] = system: Kv1.3; conditions: cited from earlier work
From the text: (§4) APETx1 are known to modulate hERG [21], Nav1.2–1.6, and Nav1.8 [20], while APETx2 modulates ASICs, Kv3.4, [22], and hERG [23], as well as Nav1.2, Nav1.6, and Nav1.8 [20]. APETx3 is known for interacting with Nav1.2–1.4, Nav1.6, DmNav1, BgNav1, and VdNav1 [20].

[19] = system: Kv1.4; conditions: cited from earlier work
From the text: as §4

[20] = system: Kv2.1; conditions: cited from earlier work
From the text: as §4

[21] = system: Kv1.5; conditions: cited from earlier work
From the text: as §4

[22] = system: Kv10.1; conditions: cited from earlier work
[23] = system: DmNav1; conditions: cited from earlier work
From the text: as §4

[24] = system: VdNav1; conditions: cited from earlier work
From the text: as §4

| Substance | effect on Kv3.4 [5] | effect on insect channel BgNav [6] | effect on Nav1.8 [7] | effect on Nav1.5 [8] | effect on Nav1.4 [9] | effect on Nav1.2 [10] | effect on Nav1.6 [11] | effect on Nav1.3 [12] | effect on Nav1.7 [13] | effect on Nav1.1 [14] | effect on hERG [15] | also measured |
| --- | --- | --- | --- | --- | --- | --- | --- | --- | --- | --- | --- | --- |
| BDS-I: toxin from Anemonia sulcata, UniProt P11494 (AAPCFCSGKPGRGDLWILRGTCPGGYGYTSNCYKWPNICCYPH; UniProt P11494 1-43, looked up) | active |  |  |  |  |  |  |  |  |  |  | effect on Kv3.1 [1]: active; effect on TTX-sensitive channels [2]: strongly enhances; effect on TTX-resistant isoforms [3]: weakly affected; effect on Kv3.2 [4]: active |
| APETx1: APETx family peptide from Anthopleura elegantissima, UniProt P61541 (GTTCYCGKTIGIYWFGTKTCPSNRGYTGSCGYFLGICCYPVD; ends and bridges not checked; cysteine pairing not given here; UniProt P61541 1-42, looked up) |  | unaffected | modulate; also recorded: inhibits | modulate; also recorded: inhibits | modulate; also recorded: inhibits | modulate; also recorded: inhibits | modulate; also recorded: inhibits | modulate; also recorded: inhibits | unaffected | unaffected | modulate |  |
| APETx2: APETx family peptide from Anthopleura elegantissima, UniProt P61542 (GTACSCGNSKGIYWFYRPSCPTDRGYTGSCRYFLGTCCTPAD; ends and bridges not checked; cysteine pairing not given here; UniProt P61542 1-42, looked up) | modulates | unaffected | modulates; also recorded: acts on |  |  | modulates; also recorded: acts on | modulates; also recorded: acts on |  | unaffected | unaffected | modulates | effect on ASICs [16]: modulates; modulation of voltage-dependence of Nav channels [17]: did not modulate the voltage-dependence |
| APETx4: APETx family peptide from Anthopleura elegantissima, UniProt C0HL40 (GTTCYCGKTIGIYWFGKYSCPTNRGYTGSCPYFLGICCYPVD; ends and bridges not checked; cysteine pairing not given here; UniProt C0HL40 1-42, looked up) |  |  |  | modulates | modulates |  | modulates |  |  |  |  | effect on Kv1.3 [18]: modulates; effect on Kv1.4 [19]: modulates; effect on Kv2.1 [20]: modulates; effect on Kv1.5 [21]: modulates; effect on Kv10.1 [22]: notorious Kv10.1 inhibitor; also recorded: non-selective Kv10.1 inhibitor |
| APETx3: APETx family peptide from Anthopleura elegantissima, UniProt B3EWF9 (GTPCYCGKTIGIYWFGTKTCPSNRGYTGSCGYFLGICCYPVD; ends and bridges not checked; cysteine pairing not given here; UniProt B3EWF9 1-42, looked up) |  |  |  |  | interacting | interacting | interacting | interacting |  |  |  | effect on BgNav1 [6]: interacting; effect on DmNav1 [23]: interacting; effect on VdNav1 [24]: interacting; effect on hERG ([15]; Thr3Pro substitution): abolishes the activity |
